Test results taken from patent publication US20210205401A1, “SYNERGISTIC DIETARY SUPPLEMENT COMPOSITIONS FOR THE PREVENTION, TREATMENT OR CONTROL OF INFLAMMATORY DISORDERS” (LAILA NUTRACEUTICALS, priority 2014, published 2021).

Tests used:
[1] = system: Freund's Complete Adjuvant induced arthritis model of Sprague Dawley (SD) rats; assay: In-vivo anti-inflammatory activity of Composition-1, Freund's Complete Adjuvant induced arthritis model (Example 17); conditions: Composition-1 200 mg/kg body weight, Prednisolone 10 mg/kg, daily for 35 days, vs CMC control
Procedure: The in-vivo anti-inflammatory activity of composition-1, comprising the water extract of 50 g of Terminalia chebula, 25 g of methanol extract of Curcuma longa, 25 g of Boswellia serrata non-acidic resin extract (BNRE), so that their percentages in the composition are 50%, 25% and 25% respectively was evaluated by an in-vivo study in Freund's Complete Adjuvant induced arthritis model of Sprague Dawley (SD) rats.
(§1) Prednisolone was used as a positive control. The healthy male SD rats were selected and randomly divided into four groups containing six animals per group. The treatment group rats were supplemented daily with 200 mg/kg body weight of Composition-1 for 35 days. The positive control group was supplemented daily with Prednisolone at 10 mg/kg body weight. All supplements were diluted in 10 mL of 1% CMC for administration. The animals of control group received same volume of 1% CMC. At the 7th day, Freund's Complete Adjuvant (FCA) was injected subcutaneously in the sub-plantar region of the left hind paw of each animal. Paw volumes and weight bearing capacities were respectively measured using Plethysmography equipment and Incapacitance Meter on the day of FCA injection and on 35th day of treatment. The difference in volume of paw edema is considered as the inflammatory response. […]

[2] = system: Freund's Complete Adjuvant induced arthritis model of Sprague Dawley rats; assay: In-vivo anti-inflammatory activity of Composition-7, Freund's Complete Adjuvant induced arthritis model (Example 18); conditions: Composition-7 200 mg/kg body weight p.o., Prednisolone 10 mg/kg, daily for 35 days, vs CMC control
From the text: The in-vivo anti-inflammatory activity of composition-7, comprising the water extract of 36 g of Terminalia chebula, 18 g of methanol extract of Curcuma longa, 18 g of Boswellia serrata non-acidic resin extract (BNRE), 18 g of Boswellia serrata extract standardized to 75%-85% total acids by volumetric assay which contain 5% 3-O-acetyl-11-keto-β-boswellic acid (AKBA) and 10 g of excipients [Microcrystalline cellulose (MCC) and Syloid], so that their percentages in the composition are 36%, 18%, 18%, 18% and 10% respectively was evaluated by an in-vivo study in Freund's Complete Adjuvant induced arthritis model of Sprague Dawley rats.
as §1, with “Composition-7” for “Composition-1”, “At the 7th day, Freund's Complete Adjuvant (FCA) was injected subcutaneously in the sub-plantar region of the left hind paw of each animal.” left out, “treatment.” for “treatment. The difference in volume of paw edema is considered as the inflammatory response.”

For `C[C@]12C=CC(=O)C=C1CC[C@@H]1[C@@H]2[C@@H](O)C[C@@]2(C)[C@H]1CC[C@]2(O)C(=O)CO` [Prednisolone], the “% inhibition of Paw edema” value [1] was 72.73% and the “% inhibition of Paw edema” value [2] was 68.67%.
